Patent publication US20220289753A1, “SHP2 INHIBITORS” (IRBM S.P.A., priority 2019, published 2022)

Columns and labels:
[1] = biological target: T1, SHP-2 enzyme (Met1-Leu525) (Homo sapiens, UniProt Q06124); assay: SHP2 inhibition enzymatic assay (DiFMUP substrate, IRS1 peptide activation); type: biochemical; conditions: SHP2 wt; activated by 500 nM IRS1 peptide; 75 μM DiFMUP substrate
T1 construct: synthetized by Origene, Met1-Leu525, cat #TP750155; purchased Origene TP750155
T1 sequence (Q06124 1-525): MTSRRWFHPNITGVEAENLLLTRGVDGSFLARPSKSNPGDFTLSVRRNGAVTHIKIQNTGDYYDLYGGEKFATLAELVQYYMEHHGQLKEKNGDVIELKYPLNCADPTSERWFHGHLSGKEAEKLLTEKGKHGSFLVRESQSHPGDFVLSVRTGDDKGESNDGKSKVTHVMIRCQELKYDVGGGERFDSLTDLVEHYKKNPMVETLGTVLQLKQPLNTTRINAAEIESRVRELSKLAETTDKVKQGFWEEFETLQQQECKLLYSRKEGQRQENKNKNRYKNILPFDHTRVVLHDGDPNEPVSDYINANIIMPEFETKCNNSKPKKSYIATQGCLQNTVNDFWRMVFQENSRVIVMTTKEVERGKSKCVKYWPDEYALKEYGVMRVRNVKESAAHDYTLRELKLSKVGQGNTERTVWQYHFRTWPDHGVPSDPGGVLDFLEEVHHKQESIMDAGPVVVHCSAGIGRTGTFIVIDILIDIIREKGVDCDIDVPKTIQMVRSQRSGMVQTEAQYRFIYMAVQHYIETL
Method in brief: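 SHP-2 (Met1-Leu525, 0.5 nM final) preincubated 30 min with compounds and IRS1 activating peptide in HEPES pH 7.2 buffer with NaCl, KCl, EDTA, tween-20, 5 mM DTT. DiFMUP then added for 30 min at room temperature and fluorescence read. IC50 from four-parameter logistic fit of % inhibition.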

[2] = system: ERK phosphorylation in KYSE-520 cells; assay: Phospho-ERK cellular assay (Advanced phospho-ERK1/2 (Thr202/Tyr204) TR-FRET kit); type: cell-based; conditions: Homo sapiens, KYSE-520, 2 h, KYSE-520 cells, 2 h at 37° C., TR-FRET; read-out: pERK IC50
Experimental: Phospho-ERK Cellular Assay
ERK phosphorylation was detected using the “Advanced phospho-ERK1/2 (Thr202/Tyr204)” TR-FRET kit (Cisbio, Cat #64AERPEG/H), following the manufacturer reagents and instructions. […] After an overnight incubation, cells were treated with DMSO serial diluted compounds and incubated for 2 h at 37° C. After incubation, 2 μL/well of 4× Lysis Buffer (Cisbio 64KL1FDF), were added and incubated with cells for 30 min on gentle shaking. Finally, lysates were added with 2 μL/well of Eu cryptate (donor) and D2 (acceptor) conjugated antibodies (as provided by the Cisbio kit #64AERPEG/H) diluted 1:100 in Detection Buffer (as provided by the Cisbio kit #64AERPEG/H). Plates were then sealed and incubated at room temperature in the dark. After an overnight incubation, the TR-FRET signal was detected on a suitable reader (Envision, PerkinElmer). The lower the TR-FRET signal the higher the higher the SHP2 inhibition in cells. […] The percentage activity is fitted against the compound dilutions with a four-parameter logistic regression. The inflection point (i.e. the concentration at which half-maximal inhibition is achieved) is the IC50.

| IC50 [1] | IC50 [2] | SMILES |
| --- | --- | --- |
| < 500 nM | 1000 to 5000 nM | CC1(N)CCN(c2nc3nc(Sc4cccc5ccccc45)cnc3[nH]2)CC1 [Example 60, 4-methyl-1-(5-(naphthalen-1-ylthio)-1H-imidazo[4,5-b]pyrazin-2-yl)piperidin-4-amine] |
| < 500 nM | 1000 to 5000 nM | CC1(N)CCN(c2nc3nc(Sc4ccnc5ccccc45)cnc3[nH]2)CC1 [Example 61, 4-methyl-1-(5-(quinolin-4-ylthio)-1H-imidazo[4,5-b]pyrazin-2-yl)piperidin-4-amine] |
| < 500 nM | > 5000 nM | CC1(N)CCN(c2nc3nc(Sc4cccc5cccnc45)cnc3[nH]2)CC1 [Example 88, 4-methyl-1-(5-(quinolin-8-ylthio)-1H-imidazo[4,5-b]pyrazin-2-yl)piperidin-4-amine] |
| < 500 nM | < 1000 nM | N[C@@H]1c2ccccc2CC12CCN(c1nc3nc(Sc4cccnc4C(F)(F)F)cnc3[nH]1)CC2 [Example 107, (S)-1′-(5-((2-(trifluoromethyl)pyridin-3-yl)thio)-1H-imidazo[4,5-b]pyrazin-2-yl)-1,3-dihydrospiro[indene-2,4′-piperidin]-1-amine] |
| < 500 nM | < 1000 nM | CNc1nccc(Sc2cnc3[nH]c(N4CCC5(CC4)Cc4ccccc4[C@H]5N)nc3n2)c1Cl [Example 130, (S)-1′-(6-((3-chloro-2-(methylamino)pyridin-4-yl)thio)-1H-imidazo[4,5-b]pyrazin-2-yl)-1,3-dihydrospiro[indene-2,4′-piperidin]-1-amine] |
| < 500 nM | < 1000 nM | Nc1nccc(Sc2cnc3[nH]c(N4CCC5(CC4)Cc4ccccc4[C@H]5N)nc3n2)c1Cl [Example 132, (S)-1′-(5-((2-amino-3-chloropyridin-4-yl)thio)-1H-imidazo[4,5-b]pyrazin-2-yl)-1,3-dihydrospiro[indene-2,4′-piperidin]-1-amine] |
| < 500 nM | < 1000 nM | CN1C(=O)C(F)(F)c2c(Sc3cnc4[nH]c(N5CCC6(CC5)Cc5ccccc5[C@H]6N)nc4n3)cccc21 [Example 134, (S)-4-((2-(1-amino-1,3-dihydrospiro[indene-2,4′-piperidin]-1′-yl)-1H-imidazo[4,5-b]pyrazin-5-yl)thio)-3,3-difluoro-1-methylindolin-2-one] |
| < 500 nM | < 1000 nM | CC(=O)N1CC(F)(F)c2c(Sc3cnc4[nH]c(N5CCC6(CC5)Cc5ccccc5[C@H]6N)nc4n3)cccc21 [Example 135, (S)-1-(4-((2-(1-amino-1,3-dihydrospiro[indene-2,4′-piperidin]-1′-yl)-1H-imidazo[4,5-b]pyrazin-5-yl)thio)-3,3-difluoroindolin-1-yl)ethan-1-one] |
| < 500 nM | < 1000 nM | N[C@@H]1c2ccccc2CC12CCN(c1nc3nc(Sc4cccc5c4OC(F)(F)O5)cnc3[nH]1)CC2 [Example 136, (S)-1′-(5-((2,2-difluorobenzo[d][1,3]dioxol-4-yl)thio)-1H-imidazo[4,5-b]pyrazin-2-yl)-1,3-dihydrospiro[indene-2,4′-piperidin]-1-amine] |
| < 500 nM | < 1000 nM | N[C@@H]1c2cccnc2CC12CCN(c1nc3nc(Sc4cccnc4C(F)(F)F)cnc3[nH]1)CC2 [Example 139, (S)-1′-(5-((2-(trifluoromethyl)pyridin-3-yl)thio)-1H-imidazo[4,5-b]pyrazin-2-yl)-5,7-dihydrospiro[cyclopenta[b]pyridine-6,4′-piperidin]-5-amine] |
| 500 to 3000 nM | > 5000 nM | CNc1nccc(-c2cnc3[nH]c(N4CCC5(CC4)Cc4ccccc4[C@H]5N)nc3n2)c1Cl [Example 140, (S)-1′-(5-(3-chloro-2-(methylamino)pyridin-4-yl)-1H-imidazo[4,5-b]pyrazin-2-yl)-1,3-dihydrospiro[indene-2,4′-piperidin]-1-amine] |
| < 500 nM | < 1000 nM | N[C@@H]1c2ccccc2CC12CCN(c1nc3nc(Sc4ccc[n+]([O-])c4C(F)(F)F)cnc3[nH]1)CC2 [Example 141, (S)-3-((2-(1-amino-1,3-dihydrospiro[indene-2,4′-piperidin]-1′-yl)-1H-imidazo[4,5-b]pyrazin-5-yl)thio)-2-(trifluoromethyl)pyridine 1-oxide] |

More lines, now with the values behind:

| SMILES | IC50 [1] | IC50 [2] |
| --- | --- | --- |
| N[C@@H]1CCCC12CCN(c1nc3ncc(Sc4cccnc4C(F)(F)F)nc3[nH]1)CC2 [Example 2, (R)-8-(6-((2-(trifluoromethyl)pyridin-3-yl)thio)-1H-imidazo[4,5-b]pyrazin-2-yl)-8-azaspiro[4.5]decan-1-amine] | < 500 nM | 1000 to 5000 nM |
| N[C@@H]1CCCC12CCN(c1nc3ncc(Sc4cccc(Cl)c4Cl)nc3[nH]1)CC2 [Example 3, (R)-8-(6-((2,3-dichlorophenyl)thio)-1H-imidazo[4,5-b]pyrazin-2-yl)-8-azaspiro[4.5]decan-1-amine] | < 500 nM | 1000 to 5000 nM |
| CC1(N)CCN(c2nc3nc(Sc4ccccc4C(F)(F)F)cnc3[nH]2)CC1 [Example 18, 4-methyl-1-(5-((2-(trifluoromethyl)phenyl)thio)-1H-imidazo[4,5-b]pyrazin-2-yl)piperidin-4-amine] | < 500 nM | 1000 to 5000 nM |
| CC1(N)CCN(c2nc3ncc(Sc4cccc(Cl)c4Cl)nc3[nH]2)CC1 [Example 22, 1-(5-((2,3-dichlorophenyl)thio)-1H-imidazo[4,5-b]pyrazin-2-yl)-4-methylpiperidin-4-amine] | < 500 nM | 1000 to 5000 nM |
| CC1(N)CCN(c2nc3nc(Sc4ccccc4Br)cnc3[nH]2)CC1 [Example 37, 1-(5-((2-bromophenyl)thio)-1H-imidazo[4,5-b]pyrazin-2-yl)-4-methylpiperidin-4-amine] | < 500 nM | 1000 to 5000 nM |
| Cn1c(N2CCC(C)(N)CC2)nc2nc(Sc3cccnc3C(F)(F)F)cnc21 [Example 52, 4-methyl-1-(1-methyl-5-((2-(trifluoromethyl)pyridin-3-yl)thio)-1H-imidazo[4,5-b]pyrazin-2-yl)piperidin-4-amine] | < 500 nM | > 5000 nM |
| CC1(N)CCN(c2nc3nc(Sc4ccnc5cccnc45)cnc3[nH]2)CC1 [Example 62, 1-(5-((1,5-naphthyridin-4-yl)thio)-1H-imidazo[4,5-b]pyrazin-2-yl)-4-methylpiperidin-4-amine] | < 500 nM | 1000 to 5000 nM |
| CC1(N)CCN(c2nc3nc(Sc4cccc5nccnc45)cnc3[nH]2)CC1 [Example 71, 4-methyl-1-(5-(quinoxalin-5-ylthio)-1H-imidazo[4,5-b]pyrazin-2-yl)piperidin-4-amine] | < 500 nM | 1000 to 5000 nM |
| CC1(N)CCN(c2nc3nc(Sc4ccccc4S(F)(F)(F)(F)F)cnc3[nH]2)CC1 [Example 74, 4-methyl-1-(5-((2-(pentafluoro-l6-sulfaneyl)phenyl)thio)-1H-imidazo[4,5-b]pyrazin-2-yl)piperidin-4-amine] | < 500 nM | 1000 to 5000 nM |
| C[C@@H]1OCC2(CCN(c3nc4nc(Sc5cccnc5C(F)(F)F)cnc4[nH]3)CC2)[C@@H]1N [Example 96, (3S,4S)-3-methyl-8-(5-((2-(trifluoromethyl)pyridin-3-yl)thio)-1H-imidazo[4,5-b]pyrazin-2-yl)-2-oxa-8-azaspiro[4.5]decan-4-amine] | < 500 nM | 1000 to 5000 nM |
| Cc1nc2nc(N3CCC(C)(N)CC3)[nH]c2nc1Sc1cccc(Cl)c1Cl [Example 133, 1-(5-((2,3-dichlorophenyl)thio)-6-methyl-1H-imidazo[4,5-b]pyrazin-2-yl)-4-methylpiperidin-4-amine] | < 500 nM | > 5000 nM |
| CC(C)(C)S(=O)(=O)N[C@@H]1c2cccnc2CC12CCN(c1nc3nc(Sc4cccnc4C(F)(F)F)cnc3[nH]1)CC2 [Example 142, (S)-2-methyl-N-(1′-(5-((2-(trifluoromethyl)pyridin-3-yl)thio)-1H-imidazo[4,5-b]pyrazin-2-yl)-5,7-dihydrospiro[cyclopenta[b]pyridine-6,4′-piperidin]-5-yl)propane-2-sulfonamide] | 500 to 3000 nM | > 5000 nM |
